Holding throughout (test): In vitro antibacterial activity, agar dilution MIC
(In general: In agar dilution the substance is mixed into plates at graded concentrations.)

For one test, the system named is Candida albicans CCH 442. The format is cell-based. To be noted: code TT, BHI agar, 35-37° C., 20-24 hours, unit assumed. How it is done: (§1) Each plate was inoculated with 1:100 (or 1:10 for slow-growing strains, such as Micrococcus and Streptococcus) dilutions of up to 32 different microorganisms, using a Steers replicator block. The inoculated plates were incubated at 35-37° C. for 20-24 hours. In addition, a control plate using BHI agar with no test compound was prepared and incubated at the beginning and end of each test. A plate containing erythromycin A was also prepared to provide test-to-test comparability. […] After incubation, each plate was visually inspected. The minimum inhibitory concentration (MIC) was defined as the lowest concentration of drug yielding no growth, a slight haze, or sparsely isolated colonies on the inoculum spot as compared to the growth control.

Test [1] has as its system Mycobacterium smegmatis ATCC 114. The format is cell-based. The conditions noted are these: code UU, BHI agar, 35-37° C., 20-24 hours, unit assumed. As to the method:
as §1

Test [2] concerns Nocardia Asteroides ATCC 99700. Format: cell-based. To be noted: code VV, BHI agar, 35-37° C., 20-24 hours, unit assumed. As to the method:
as §1

Test [3] relates to Staphylococcus aureus 1775. The format is cell-based. The conditions noted are these: code GG, BHI agar, 35-37° C., 20-24 hours, unit assumed. As to the method:
as §1

Test [4] relates to Staphylococcus aureus A-5177. Format: cell-based. To be noted: code BB, BHI agar, 35-37° C., 20-24 hours, unit assumed. As to the method:
as §1

The subject of test [5] is Staphylococcus aureus A-5278. The format is cell-based. To be noted: code CC, BHI agar, 35-37° C., 20-24 hours, unit assumed. As to the method:
as §1

In test [6] the test system is Staphylococcus aureus ATCC 6538P. The format is cell-based. The conditions noted are these: code AA, BHI agar, 35-37° C., 20-24 hours, unit assumed. How it is done: as §1
Test [7] concerns Staphylococcus aureus NCTC 10649M. Format: cell-based. The conditions noted are these: code EE, BHI agar, 35-37° C., 20-24 hours, unit assumed. How it is done: as §1
For test [8], the system named is Staphylococcus epidermidis 3519. The format is cell-based. To be noted: code HH, BHI agar, 35-37° C., 20-24 hours, unit assumed. As to the method: as §1
Test [9] concerns Streptococcus Pneumonia 5649. Format: cell-based. To be noted: code ZA, BHI agar, 35-37° C., 20-24 hours, unit assumed. How it is done: as §1
Test [10] relates to Streptococcus Pneumonia ATCC 6303. The format is cell-based. To be noted: code XX, BHI agar, 35-37° C., 20-24 hours, unit assumed. How it is done:
as §1

For test [11], the system named is Streptococcus Pneumonia GYR 1171. Format: cell-based. The conditions noted are these: code YY, BHI agar, 35-37° C., 20-24 hours, unit assumed. As to the method: as §1
The test system of test [12] is Streptococcus agalactiae CMX 508. Format: cell-based. To be noted: code KK, BHI agar, 35-37° C., 20-24 hours, unit assumed. How it is done:
as §1

The subject of test [13] is Streptococcus bovis A-5169. The format is cell-based. To be noted: code JJ, BHI agar, 35-37° C., 20-24 hours, unit assumed. How it is done:
as §1

Test [14] concerns Streptococcus pyogenes 930. The format is cell-based. The conditions noted are these: code MM, BHI agar, 35-37° C., 20-24 hours, unit assumed. How it is done:
as §1

The test system of test [15] is Streptococcus pyogenes EES61. Format: cell-based. The conditions noted are these: code LL, BHI agar, 35-37° C., 20-24 hours, unit assumed. How it is done: as §1
In test [16] the test system is Streptococcus pyogenes PIU 2548. Format: cell-based. The conditions noted are these: code NN, BHI agar, 35-37° C., 20-24 hours, unit assumed. How it is done: as §1
The subject of test [17] is Micrococcusluteus ATCC 4698. Format: cell-based, Micrococcus luteus. To be noted: code PP, BHI agar, 35-37° C., 20-24 hours, unit assumed. How it is done:
as §1

For the next test, the system named is Escherichiacoli JUHL. The format is cell-based, Escherichia coli. To be noted: code QQ, BHI agar, 35-37° C., 20-24 hours, unit assumed. As to the method: as §1
Another test relates to Escherichiacoli SS. Format: cell-based, Escherichia coli. To be noted: code RR, BHI agar, 35-37° C., 20-24 hours, unit assumed. How it is done:
as §1

The subject of test [18] is Haemophilislnfluenzae DILL AMP R. The format is cell-based, Haemophilus influenzae. The conditions noted are these: code WW, BHI agar, 35-37° C., 20-24 hours, unit assumed. As to the method: Representative compounds of the present invention were assayed in vitro for antibacterial activity as follows: twelve petri dishes containing successive aqueous dilutions of the test compound mixed with 10 mL of sterilized Brain Heart Infusion (BHI) agar (Difco 0418-01-5) were prepared. Each plate was inoculated with 1:100 (or 1:10 for slow-growing strains, such as Micrococcus and Streptococcus) dilutions of up to 32 different microorganisms, using a Steers replicator block. The inoculated plates were incubated at 35-37° C. for 20-24 hours. In addition, a control plate using BHI agar with no test compound was prepared and incubated at the beginning and end of each test.
A plate containing erythromycin A was also prepared to provide test-to-test comparability.
After incubation, each plate was visually inspected. The minimum inhibitory concentration (MIC) was defined as the lowest concentration of drug yielding no growth, a slight haze, or sparsely isolated colonies on the inoculum spot as compared to the growth control.

Test [19] concerns Streptococcus Pneumonia 5979. The format is cell-based. The conditions noted are these: code ZZ, BHI agar, 35-37° C., 20-24 hours, unit assumed. As to the method: as §1, with “test.” for “test. A plate containing erythromycin A was also prepared to provide test-to-test comparability.”

As for `CC[C@H]1OC(=O)[C@H](C)[C@@H](O[C@H]2C[C@@](C)(OC)[C@@H](O)[C@H](C)O2)[C@H](C)[C@@H](O[C@@H]2O[C@H](C)C[C@H](N(C)C)[C@H]2O)[C@](C)(O)C[C@@H](C)C(=O)[C@H](C)[C@@H](O)[C@]1(C)O` [Ery. A, Erythromycin A, reference compound], the Antibacterial Activity (MIC's) was > 100 µg/mL in the test with Candida albicans CCH 442; 3.1 µg/mL in [1]; 0.1 µg/mL in [2]; > 100 µg/mL in [3]; 3.1 µg/mL in [4]; > 100 µg/mL in [5]. Also, the Antibacterial Activity (MIC's) in [6] was 0.2 µg/mL; in test [7], 0.39 µg/mL; in [8] it was 0.39 µg/mL; in test [9], 16 µg/mL; in test [10], 0.06 µg/mL; in [11], 0.06 µg/mL. The Antibacterial Activity (MIC's) in [12] was 0.05 µg/mL; in test [13], 0.02 µg/mL; in [14], > 100 µg/mL; in test [15] it was 0.05 µg/mL; in test [16], 6.2 µg/mL; in [17], 0.2 µg/mL. For the same compound, the Antibacterial Activity (MIC's) in the test on Escherichiacoli JUHL is > 100 µg/mL; in the test with Escherichiacoli SS, 0.78 µg/mL; in test [18], 4 µg/mL.
On to `CCC1OC(=O)CC(=O)C(C)C(OC2OC(C)CC(N(C)C)C2O)C(C)(OCC=Cc2cnc3ccccc3c2)CC(C)C(=O)C(C)C2NC(=O)OC12C` (stereo not shown) [Example 2, Compound of Formula (XI), R^p is Hydrogen, Y is Hydrogen, R^2 is 3-quinolyl, R^3 is Hydrogen and R^4 is Hydrogen], for which the Antibacterial Activity (MIC's) was > 100 µg/mL in the test on Candida albicans CCH 442; 6.2 µg/mL in [1]; 0.2 µg/mL in test [2]; > 100 µg/mL in [3]; 0.39 µg/mL in [4]; > 100 µg/mL in [5]. The Antibacterial Activity (MIC's) was found to be 0.39 µg/mL in test [6]; 0.39 µg/mL in test [7]; 0.39 µg/mL in test [8]; 0.5 µg/mL in [9]; 0.03 µg/mL in test [10]; 0.03 µg/mL in test [11]. The Antibacterial Activity (MIC's) in test [12] was 0.02 µg/mL; in test [13], 0.02 µg/mL; in test [14] it was 50 µg/mL; in test [15], 0.01 µg/mL; in test [16], 0.2 µg/mL; in [17], 0.2 µg/mL. Moreover, the Antibacterial Activity (MIC's) in the test with Escherichiacoli JUHL stood at 100 µg/mL; in the test with Escherichiacoli SS it was 0.39 µg/mL; in [18] it was 8 µg/mL; in [19], 8 µg/mL.
For the compound `C=CCC1C(=O)OC(CC)C2(C)OC(=O)NC2C(C)C(=O)C(C)CC(C)(OCC=Cc2cnc3ccccc3c2)C(OC2OC(C)CC(N(C)C)C2O)C(C)C1=O` (stereo not shown) [Example 5, Compound of Formula (XI), R^p is Hydrogen, Y is Hydrogen, R^2 is 3-quinolyl R^3 is —CH2CH═CH2 and R^4 is hydrogen], the Antibacterial Activity (MIC's) (in the test on Candida albicans CCH 442; in test [1]; in test [2]; in [3]; in test [4]; in [5]) was > 100 µg/mL in each case. In addition, the Antibacterial Activity (MIC's) in test [6] was > 100 µg/mL; in test [7], > 100 µg/mL; in test [8] it was > 100 µg/mL; in [9], > 128 µg/mL; in [10], 32 µg/mL; in [11], 32 µg/mL. Further, the Antibacterial Activity (MIC's) is 100 µg/mL in test [12]; 25 µg/mL in [13]; > 100 µg/mL in test [14]; 100 µg/mL in test [15]; > 100 µg/mL in test [16]; > 100 µg/mL in test [17]. Also, the Antibacterial Activity (MIC's) in the test on Escherichiacoli JUHL was > 100 µg/mL; with Escherichiacoli SS, > 100 µg/mL; in test [19], > 128 µg/mL.
With `CCC1OC(=O)C(CS(=O)(=O)O)C(=O)C(C)C(OC2OC(C)CC(N(C)C)C2O)C(C)(OCC=Cc2cnc3ccccc3c2)CC(C)C(=O)C(C)C2NC(=O)OC12C` (stereo not shown) [Example 6, Compound of Formula (XI), R^p is Hydrogen, Y is Hydrogen, R^2 is 3-quinolyl, R^3 is —CH2SO3H and R^4 is Hydrogen], the Antibacterial Activity (MIC's) with Candida albicans CCH 442 is > 100 µg/mL; in test [1], 12.5 µg/mL; in test [2] it was 0.2 µg/mL; in test [3], > 100 µg/mL; in test [4], 0.78 µg/mL; in [5], > 100 µg/mL. Besides, the Antibacterial Activity (MIC's) in [6] is 0.39 µg/mL; in test [7] it was 0.78 µg/mL; in test [8], 0.78 µg/mL; in test [9] it was 2 µg/mL; in test [10] it was 0.25 µg/mL; in test [11] it was 0.125 µg/mL. Further, the Antibacterial Activity (MIC's) was 0.2 µg/mL in test [12]; 0.05 µg/mL in test [13]; 25 µg/mL in test [14]; 0.2 µg/mL in test [15]; 0.78 µg/mL in test [16]; 0.39 µg/mL in test [17]. Further, the Antibacterial Activity (MIC's) was > 100 µg/mL in the test on Escherichiacoli JUHL, 3.1 µg/mL in the test with Escherichiacoli SS, 16 µg/mL in test [18] and 64 µg/mL in test [19].
As for `CCC1OC(=O)C(CC(C(=O)OC)C(=O)OC)C(=O)C(C)C(OC2OC(C)CC(N(C)C)C2O)C(C)(OCC=Cc2cnc3ccccc3c2)CC(C)C(=O)C(C)C2NC(=O)OC12C` (stereo not shown) [Example 7, Compound of Formula (XI), R^p is Hydrogen Y is Hydrogen R^2 is 3-quinolyl, R^3 is —CH CH(CO2Me)2 and R^4 is Hydrogen], the Antibacterial Activity (MIC's) amounted to 0.25 µg/mL in [9]; 0.03 µg/mL in test [10]; 0.03 µg/mL in [11]; 8 µg/mL in [18]; 64 µg/mL in test [19].

Values taken from patent US6569836B2, “6-O-alkyl-2-nor-2-substituted ketolide derivatives” (Abbott Laboratories, priority 1999, dated 2003).
